Laboratory results: US7326288B2, “Trisazo compound, ink composition, and colored object” (Nippon Kayaku Kabushiki Kaisha, priority 2003, dated 2008)

Assays:
[1] = solubility in water of the isolated trisazo compound; assay type: physicochemical
[2] = Solubility Test (ammonia alkalinity, spot on filter paper); assay type: physicochemical; conditions: aqueous buffer, thermodynamic from solid
Procedure: Using ion exchanged water for a water, pH was adjusted at 9 to 9.5 with aqueous ammonia. They were treated with ultrasonic vessel at ordinary temperature. Toyo Filter Paper No. 131 was spotted with them, surface of which after dried was observed and solubility of which was determined. When a spot was uniform and insoluble material were not observed, it was judged to be soluble. When a spot was ununiform and insoluble material were observed, it was judged to be not soluble.

| solubility [1] | solubility [2] | Structure (SMILES) |
| --- | --- | --- |
| ≥ 100 mg/mL | – | Nc1c(N=Nc2ccc3c(O)c(N=Nc4cc(C(=O)O)cc(C(=O)O)c4)c(S(=O)(=O)O)cc3c2S(=O)(=O)O)cc(S(=O)(=O)O)c2cc(S(=O)(=O)O)c(N=Nc3ccc([N+](=O)[O-])cc3S(=O)(=O)O)c(O)c12 [compound 24] |
| – | ≥ 120 mg/mL | Nc1c(N=Nc2ccc3c(O)c(N=Nc4cc(S(=O)(=O)O)ccc4S(=O)(=O)O)c(S(=O)(=O)O)cc3c2S(=O)(=O)O)cc(S(=O)(=O)O)c2cc(S(=O)(=O)O)c(N=Nc3ccc([N+](=O)[O-])cc3S(=O)(=O)O)c(O)c12 [Formula (2-10)] |
| ≥ 100 mg/mL | – | COc1ccc(N=Nc2c(S(=O)(=O)O)cc3c(S(=O)(=O)O)c(N=Nc4cc(S(=O)(=O)O)c5cc(S(=O)(=O)O)c(N=Nc6ccc([N+](=O)[O-])cc6S(=O)(=O)O)c(O)c5c4N)ccc3c2O)c(S(=O)(=O)O)c1 [compound 1] |
| ≥ 100 mg/mL | – | Nc1c(N=Nc2ccc3c(O)c(N=Nc4ccc(S(=O)(=O)O)cc4C(=O)O)c(S(=O)(=O)O)cc3c2S(=O)(=O)O)cc(S(=O)(=O)O)c2cc(S(=O)(=O)O)c(N=Nc3ccc([N+](=O)[O-])cc3S(=O)(=O)O)c(O)c12 [compound 2] |
| ≥ 100 mg/mL | – | Nc1c(N=Nc2ccc3c(O)c(N=Nc4ccc(S(N)(=O)=O)cc4C(=O)O)c(S(=O)(=O)O)cc3c2S(=O)(=O)O)cc(S(=O)(=O)O)c2cc(S(=O)(=O)O)c(N=Nc3ccc([N+](=O)[O-])cc3S(=O)(=O)O)c(O)c12 [compound 4] |
| ≥ 100 mg/mL | – | Nc1c(N=Nc2ccc3c(O)c(N=Nc4cc(C(=O)O)cc(C(=O)O)c4)c(S(=O)(=O)O)cc3c2S(=O)(=O)O)cc(S(=O)(=O)O)c2cc(S(=O)(=O)O)c(N=Nc3ccc(S(=O)(=O)O)cc3[N+](=O)[O-])c(O)c12 [compound 26] |
| ≥ 100 mg/mL | – | CNS(=O)(=O)c1ccc(N=Nc2c(S(=O)(=O)O)cc3c(S(=O)(=O)O)c(N=Nc4cc(S(=O)(=O)O)c5cc(S(=O)(=O)O)c(N=Nc6ccc([N+](=O)[O-])cc6S(=O)(=O)O)c(O)c5c4N)ccc3c2O)c(C(=O)O)c1 [compound 9] |
| ≥ 100 mg/mL | – | Nc1c(N=Nc2ccc3c(O)c(N=Nc4cc(C(=O)O)ccc4C(=O)O)c(S(=O)(=O)O)cc3c2S(=O)(=O)O)cc(S(=O)(=O)O)c2cc(S(=O)(=O)O)c(N=Nc3ccc([N+](=O)[O-])cc3S(=O)(=O)O)c(O)c12 [compound 3] |

| Structure (SMILES) | solubility [1] | solubility [2] |
| --- | --- | --- |
| Nc1c(N=Nc2ccc3c(O)c(N=Nc4ccc([N+](=O)[O-])cc4S(=O)(=O)O)c(S(=O)(=O)O)cc3c2S(=O)(=O)O)cc(S(=O)(=O)O)c2cc(S(=O)(=O)O)c(N=Nc3ccc([N+](=O)[O-])cc3S(=O)(=O)O)c(O)c12 [compound 5] | ≥ 100 mg/mL | – |
| Nc1c(N=Nc2ccc3c(O)c(N=Nc4cc(S(=O)(=O)O)c5cc([N+](=O)[O-])cc(S(=O)(=O)O)c5c4)c(S(=O)(=O)O)cc3c2S(=O)(=O)O)cc(S(=O)(=O)O)c2cc(S(=O)(=O)O)c(N=Nc3ccc([N+](=O)[O-])cc3S(=O)(=O)O)c(O)c12 [compound 20] | ≥ 100 mg/mL | – |
